The subject of experiment [1] is K aerogenes E70. Put plainly: Antibacterial activity, standard MIC test. Format: cell-based. The conditions noted are these: Klebsiella aerogenes, compound alone. From the text: (§1) Using conventional methods the following results were obtained in a standard MIC test: […]
In experiment [2] the test system is St aureus Russell. The experiment can be described thus: Antibacterial activity, standard MIC test. The settings on record: Staphylococcus aureus, compound alone. The format is cell-based.
Text: as §1

For experiment [3], the system named is E coli JT39. The experiment can be described thus: Antibacterial activity, standard MIC test. The format is cell-based, Escherichia coli. The settings on record: compound alone.
Text: as §1

For experiment [4], the system named is E coli JT39. The experiment can be described thus: Synergistic activity with amoxycillin, standard MIC test. Format: cell-based, Escherichia coli. The settings on record: amoxycillin alone.
Text: (§2) Synergistic Activity with Amoxycillin
as §1

Experiment [5] concerns K aerogenes E70. Described as above. The format is cell-based, Klebsiella aerogenes. The conditions noted are these: amoxycillin alone.
Text: as §2, §1

For experiment [6], the system named is St aureus Russell. The experiment is described as above. The settings on record: amoxycillin alone. The format is cell-based, Staphylococcus aureus.
Text: as §2, §1

The mark [7] stands for this setting: Escherichia coli, read-out: MIC.

SMILES strings stand for the structures. In brackets after ≈: the same amount, converted by molar mass. Like-named read-outs stand apart in the source and are kept apart here.

Consider `O=C(O)CCNC/C=C1\O[C@@H]2CC(=O)N2[C@H]1C(=O)O` [1(b), 9-N-(2'-Carboxyethyl)aminodeoxyclavulanic acid], for which the MIC (commonly the smallest concentration in the dilution series that meets the test's criterion for growth inhibition) against K aerogenes E70 [1] was > 500 µg/mL; against St aureus Russell [2], 31 µg/mL (≈ 115 µM); in the experiment on E coli JT39 [3] (setting [7]) it was 15 µg/mL (≈ 55.5 µM).

Take `O=C(O)CCCCNC/C=C1\O[C@@H]2CC(=O)N2[C@H]1C(=O)O` [3(c), 9-N-(4'-Carboxybutyl)aminodeoxyclavulanic acid]: the figures for the MIC against K aerogenes E70 [1], against St aureus Russell [2] and with E coli JT39 [3] (setting [7]) were 250 µg/mL (≈ 838 µM), 31 µg/mL (≈ 104 µM) and 62.5 µg/mL (≈ 210 µM), respectively.

Turning to `N[C@@H](CCCCNC/C=C1\O[C@@H]2CC(=O)N2[C@H]1C(=O)O)C(=O)O` [14(d)], the MIC against K aerogenes E70 [1] is > 500 µg/mL; with St aureus Russell [2], 31 µg/mL (≈ 94.7 µM); against E coli JT39 [3], 125 µg/mL (≈ 382 µM).

Turning to `O=C(O)CCCCCNC/C=C1\O[C@@H]2CC(=O)N2[C@H]1C(=O)O` [9(b), 9-N-(5'-Carboxypentyl)aminodeoxyclavulanic acid], the MIC was determined as 250 µg/mL (≈ 800 µM) against K aerogenes E70 [1], 31 µg/mL (≈ 99.3 µM) against St aureus Russell [2] and 31 µg/mL (≈ 99.3 µM) in the experiment with E coli JT39 [3] (setting [7]).

Take `CC1(C)S[C@@H]2[C@H](NC(=O)[C@H](N)c3ccc(O)cc3)C(=O)N2[C@H]1C(=O)O` [Amoxycillin]: the MIC amoxycillin in the experiment on E coli JT39 [4] came to 2000 µg/mL; with K aerogenes E70 [5], 500 µg/mL; in the experiment with St aureus Russell [6], 500 µg/mL.

As for `O=C(O)c1ccc(CNC/C=C2\O[C@@H]3CC(=O)N3[C@H]2C(=O)O)cc1` [4(c), 9-N-(4'-Carboxybenzyl)aminodeoxyclavulanic acid], the figures for the MIC against K aerogenes E70 [1], against St aureus Russell [2] and in the experiment on E coli JT39 [3] (setting [7]) were 250 µg/mL (≈ 752 µM), 4 µg/mL (≈ 12 µM) and 31 µg/mL (≈ 93.3 µM), respectively.

Take `COC(=O)CCNC/C=C1\O[C@@H]2CC(=O)N2[C@H]1C(=O)O` [6(b), 9-N-(2'-Methoxycarbonylethyl)aminodeoxyclavulanic acid]: the MIC against K aerogenes E70 [1] is 250 µg/mL (≈ 879 µM); in the experiment on St aureus Russell [2], 8 µg/mL (≈ 28.1 µM); with E coli JT39 [3] (setting [7]), 31 µg/mL (≈ 109 µM).

As to `O=C(O)[C@H]1/C(=C/CNC[C@H]2CC[C@H](C(=O)O)CC2)O[C@@H]2CC(=O)N21` [12(d), 9-N-(trans-4'-Carboxycyclohexylmethyl)aminodeoxyclavulanic acid], the MIC turned out to be 250 µg/mL (≈ 739 µM) with K aerogenes E70 [1], 16 µg/mL (≈ 47.3 µM) with St aureus Russell [2] and 31 µg/mL (≈ 91.6 µM) with E coli JT39 [3] (setting [7]).

`O=C(O)CCCCCCCCCCNC/C=C1\O[C@@H]2CC(=O)N2[C@H]1C(=O)O` [11(b), 9-N-(10'-Carboxydecyl)aminodeoxyclavulanic acid]: the results for the minimal inhibitory concentration (MIC) against K aerogenes E70 [1] and against St aureus Russell [2] were > 500 µg/mL and 8 µg/mL (≈ 20.9 µM), respectively.

As to `O=C(O)CCCNC/C=C1\O[C@@H]2CC(=O)N2[C@H]1C(=O)O` [10(b), 9-N-(3'-Carboxypropyl)aminodeoxyclavulanic acid], the figures for the MIC against K aerogenes E70 [1], with St aureus Russell [2] and in the experiment with E coli JT39 [3] (setting [7]) were 250 µg/mL (≈ 879 µM), 62.5 µg/mL (≈ 220 µM) and 31 µg/mL (≈ 109 µM), respectively.

For the origin of these results see patent publication US4539202A, “Derivatives of clavulanic acid, a process for their preparation and their use” (Beecham Group p.l.c., priority 1983, dated 1985).
